# In patent US8192962B2, “Processes for detecting toxic substances” (Daikin Industries, Ltd., priority 2001, dated 2012):
# Tested on: Metabolism protein genes
# Assay: DNA chip mRNA expression in yeast, metabolism protein genes (Table 7)
# Format: cell-based, Saccharomyces cerevisiae S288C
# Protocol: Yeast (Saccharomyces cerevisiae S288C (α SUC2mal mel gap2 CUP1)) were incubated at 25° C. on YPD medium (yeast extract 1%, polypepton 2%, glucose 2%). One of toxic chemical substances was added to the cells at logarithmic growth phase, and the cells were further incubated for two hours. Cells were cultured without any chemical substance in the same condition, and were used as control. Concentrations of the chemical substances were defined to inhibit the growth of the yeast but not lead to death.
# After completion of the incubation, the culture was centrifuged to collect the cells. To the cells, sodium acetate buffer (50 mM sodium acetate, 10 mM EDTA, 1% SDS) was added, and the mixture was shaken at 65° C. for five minutes, followed by returning to room temperature, and obtaining the supernatant, of which the procedures were repeated two times. To the supernatant, ½ amount of a solution of phenol/chloroform was added, and the mixture was centrifuged to give a supernatant, which was added with an equal amount of chloroform, and the mixture was centrifuged to give a supernatant. To the supernatant, an equal amount of isopropanol containing 0.3 M sodium acetate was added, and the mixture was allowed to stand at room temperature for 30 minutes, after which the mixture was centrifuged to give a sediment of the whole RNAs. Seventy % ethanol was added to the sediment, and the mixture was again centrifuged to give a sediment, which was then dried and dissolved in water. mRNA was isolated from the whole RNAs as followings. In view of the fact that a poly A chain is attached to the 3′ terminus of mRNA, a polynucleotide having a poly T structure which was immobilized on the surface of latex beads was used to trap the mRNA, and then the mRNA was washed and eluted with spine column (Oligotex-dT30<Super>mRNA Purification Kit, Takara). Reverse transcription of the mRNA was conducted with a reverse transcriptase (Super Script II Reverse Transcriptase; catalogue No. 18064-014, GibcoBRL) using fluorescence-labeled nucleotides to give cDNAs that were introduced with Cy3-dUTP or Cy5-dUTP during the reverse transcription.
# The labeled cDNAs were dissolved in TE buffer (10mM Tris-HCl/1 mM EDTA, pH8.0), and the solution was dropped on the DNA chip containing the whole genes of yeast (DNA Chip Research Inc. Japan) so that the cDNAs were hybridized on the DNA chip at 65° C. for over 12 hours. The fluoresces intensity of the DNA chip was read with a scanner, and the ratio relative to the fluorescence intensity resulting from the absence of chemical substance was estimated as the following, which is shown in Tables 1 to 9: […]
smiles,measurement,setting,value
"[Cl][Hg][Cl] [(3), HgCl2]",The level of expressed mRNA in the presence of chemical substance/The level of expressed mRNA in the absence of chemical substance,yeast gene YJR155W,1.4
same,The level of expressed mRNA in the presence of chemical substance/The level of expressed mRNA in the absence of chemical substance,yeast gene YKL035W,4.8
same,level of expressed mRNA in the presence/in the absence of chemical substance,yeast gene YKL060C,2.5
same,The level of expressed mRNA in the presence of chemical substance/The level of expressed mRNA in the absence of chemical substance,yeast gene YKL091C,1.4
same,The level of expressed mRNA in the presence of chemical substance/The level of expressed mRNA in the absence of chemical substance,yeast gene YKL104C,1.6
same,level of expressed mRNA in the presence/in the absence of chemical substance,yeast gene YKL148C,3.7
same,The level of expressed mRNA in the presence of chemical substance/The level of expressed mRNA in the absence of chemical substance,yeast gene YKL152C,1.9
same,level of expressed mRNA in the presence/in the absence of chemical substance,yeast gene YKL157W,2.3
same,The level of expressed mRNA in the presence of chemical substance/The level of expressed mRNA in the absence of chemical substance,yeast gene YKL213C,1.0
same,The level of expressed mRNA in the presence of chemical substance/The level of expressed mRNA in the absence of chemical substance,yeast gene YKL215C,1.3
same,level of expressed mRNA in the presence/in the absence of chemical substance,yeast gene YKR034W,1.1
same,The level of expressed mRNA in the presence of chemical substance/The level of expressed mRNA in the absence of chemical substance,yeast gene YLL058W,1.4
same,level of expressed mRNA in the presence/in the absence of chemical substance,yeast gene YLR006C,0.9
same,level of expressed mRNA in the presence/in the absence of chemical substance,yeast gene YLR044C,2.2
same,level of expressed mRNA in the presence/in the absence of chemical substance,yeast gene YLR056W,2.5
same,level of expressed mRNA in the presence/in the absence of chemical substance,yeast gene YLR058C,5.5
same,level of expressed mRNA in the presence/in the absence of chemical substance,yeast gene YLR081W,2.8
same,level of expressed mRNA in the presence/in the absence of chemical substance,yeast gene YLR089C,2.1
same,The level of expressed mRNA in the presence of chemical substance/The level of expressed mRNA in the absence of chemical substance,yeast gene YLR180W,2.4
same,The level of expressed mRNA in the presence of chemical substance/The level of expressed mRNA in the absence of chemical substance,yeast gene YLR273C,1.3
same,level of expressed mRNA in the presence/in the absence of chemical substance,yeast gene YLR284C,3.8
same,The level of expressed mRNA in the presence of chemical substance/The level of expressed mRNA in the absence of chemical substance,yeast gene YLR299W,1.5
same,The level of expressed mRNA in the presence of chemical substance/The level of expressed mRNA in the absence of chemical substance,yeast gene YLR300W,0.8
same,level of expressed mRNA in the presence/in the absence of chemical substance,yeast gene YLR304C,5.0
same,The level of expressed mRNA in the presence of chemical substance/The level of expressed mRNA in the absence of chemical substance,yeast gene YLR307W,0.7
same,The level of expressed mRNA in the presence of chemical substance/The level of expressed mRNA in the absence of chemical substance,yeast gene YLR348C,1.2
same,level of expressed mRNA in the presence/in the absence of chemical substance,yeast gene YLR354C,2.3
same,level of expressed mRNA in the presence/in the absence of chemical substance,yeast gene YLR372W,1.7
same,level of expressed mRNA in the presence/in the absence of chemical substance,yeast gene YML022W,2.0
same,The level of expressed mRNA in the presence of chemical substance/The level of expressed mRNA in the absence of chemical substance,yeast gene YML054C,1.3
same,The level of expressed mRNA in the presence of chemical substance/The level of expressed mRNA in the absence of chemical substance,yeast gene YML070W,2.5
same,The level of expressed mRNA in the presence of chemical substance/The level of expressed mRNA in the absence of chemical substance,yeast gene YML100W,10.6
same,The level of expressed mRNA in the presence of chemical substance/The level of expressed mRNA in the absence of chemical substance,yeast gene YMR008C,1.4
same,level of expressed mRNA in the presence/in the absence of chemical substance,yeast gene YMR011W,9.4
same,level of expressed mRNA in the presence/in the absence of chemical substance,yeast gene YMR015C,1.9
same,The level of expressed mRNA in the presence of chemical substance/The level of expressed mRNA in the absence of chemical substance,yeast gene YMR020W,0.9
same,level of expressed mRNA in the presence/in the absence of chemical substance,yeast gene YMR083W,2.6
same,The level of expressed mRNA in the presence of chemical substance/The level of expressed mRNA in the absence of chemical substance,yeast gene YMR105C,5.0
same,The level of expressed mRNA in the presence of chemical substance/The level of expressed mRNA in the absence of chemical substance,yeast gene YMR189W,1.9
same,level of expressed mRNA in the presence/in the absence of chemical substance,yeast gene YMR205C,2.3
same,level of expressed mRNA in the presence/in the absence of chemical substance,yeast gene YMR261C,3.6
same,The level of expressed mRNA in the presence of chemical substance/The level of expressed mRNA in the absence of chemical substance,yeast gene YMR271C,1.3
same,The level of expressed mRNA in the presence of chemical substance/The level of expressed mRNA in the absence of chemical substance,yeast gene YMR296C,1.2
same,level of expressed mRNA in the presence/in the absence of chemical substance,yeast gene YMR323W,2.9
same,The level of expressed mRNA in the presence of chemical substance/The level of expressed mRNA in the absence of chemical substance,yeast gene YNL012W,1.8
same,level of expressed mRNA in the presence/in the absence of chemical substance,yeast gene YNL025C,1.4
same,The level of expressed mRNA in the presence of chemical substance/The level of expressed mRNA in the absence of chemical substance,yeast gene YNL045W,2.0
same,The level of expressed mRNA in the presence of chemical substance/The level of expressed mRNA in the absence of chemical substance,yeast gene YNL104C,3.0
same,The level of expressed mRNA in the presence of chemical substance/The level of expressed mRNA in the absence of chemical substance,yeast gene YNL106C,0.8
same,The level of expressed mRNA in the presence of chemical substance/The level of expressed mRNA in the absence of chemical substance,yeast gene YNL169C,1.4
same,level of expressed mRNA in the presence/in the absence of chemical substance,yeast gene YNL192W,1.5
same,The level of expressed mRNA in the presence of chemical substance/The level of expressed mRNA in the absence of chemical substance,yeast gene YNL231C,0.8
same,The level of expressed mRNA in the presence of chemical substance/The level of expressed mRNA in the absence of chemical substance,yeast gene YNL322C,1.9
same,The level of expressed mRNA in the presence of chemical substance/The level of expressed mRNA in the absence of chemical substance,yeast gene YNL331C,1.3
same,The level of expressed mRNA in the presence of chemical substance/The level of expressed mRNA in the absence of chemical substance,yeast gene YNL332W,1.1
same,The level of expressed mRNA in the presence of chemical substance/The level of expressed mRNA in the absence of chemical substance,yeast gene YNR019W,1.6
same,The level of expressed mRNA in the presence of chemical substance/The level of expressed mRNA in the absence of chemical substance,yeast gene YNR033W,0.8
same,The level of expressed mRNA in the presence of chemical substance/The level of expressed mRNA in the absence of chemical substance,yeast gene YNR059W,0.2
same,The level of expressed mRNA in the presence of chemical substance/The level of expressed mRNA in the absence of chemical substance,yeast gene YOL058W,1.7
same,level of expressed mRNA in the presence/in the absence of chemical substance,yeast gene YOL086C,2.2
same,level of expressed mRNA in the presence/in the absence of chemical substance,yeast gene YOL108C,0.4
same,level of expressed mRNA in the presence/in the absence of chemical substance,yeast gene YOL116W,0.9
same,The level of expressed mRNA in the presence of chemical substance/The level of expressed mRNA in the absence of chemical substance,yeast gene YOL126C,1.0
same,The level of expressed mRNA in the presence of chemical substance/The level of expressed mRNA in the absence of chemical substance,yeast gene YOL153C,2.1
same,level of expressed mRNA in the presence/in the absence of chemical substance,yeast gene YOL156W,2.5
same,The level of expressed mRNA in the presence of chemical substance/The level of expressed mRNA in the absence of chemical substance,yeast gene YOL165C,1.8
same,level of expressed mRNA in the presence/in the absence of chemical substance,yeast gene YOR002W,1.9
same,level of expressed mRNA in the presence/in the absence of chemical substance,yeast gene YOR085W,1.9
same,The level of expressed mRNA in the presence of chemical substance/The level of expressed mRNA in the absence of chemical substance,yeast gene YOR099W,2.1
same,level of expressed mRNA in the presence/in the absence of chemical substance,yeast gene YOR103C,1.3
same,level of expressed mRNA in the presence/in the absence of chemical substance,yeast gene YOR108W,2.3
same,level of expressed mRNA in the presence/in the absence of chemical substance,yeast gene YOR128C,2.1
same,The level of expressed mRNA in the presence of chemical substance/The level of expressed mRNA in the absence of chemical substance,yeast gene YOR130C,1.4
same,level of expressed mRNA in the presence/in the absence of chemical substance,yeast gene YOR142W,3.4
same,level of expressed mRNA in the presence/in the absence of chemical substance,yeast gene YOR176W,2.7
same,level of expressed mRNA in the presence/in the absence of chemical substance,yeast gene YOR178C,4.8
same,level of expressed mRNA in the presence/in the absence of chemical substance,yeast gene YOR251C,1.3
same,The level of expressed mRNA in the presence of chemical substance/The level of expressed mRNA in the absence of chemical substance,yeast gene YOR336W,0.7
same,The level of expressed mRNA in the presence of chemical substance/The level of expressed mRNA in the absence of chemical substance,yeast gene YOR347C,2.1
same,level of expressed mRNA in the presence/in the absence of chemical substance,yeast gene YOR348C,1.2
same,The level of expressed mRNA in the presence of chemical substance/The level of expressed mRNA in the absence of chemical substance,yeast gene YPL017C,0.8
same,level of expressed mRNA in the presence/in the absence of chemical substance,yeast gene YPL028W,2.6
same,level of expressed mRNA in the presence/in the absence of chemical substance,yeast gene YPL057C,3.2
same,level of expressed mRNA in the presence/in the absence of chemical substance,yeast gene YPL135W,2.5
same,level of expressed mRNA in the presence/in the absence of chemical substance,yeast gene YPL148C,0.9
same,The level of expressed mRNA in the presence of chemical substance/The level of expressed mRNA in the absence of chemical substance,yeast gene YPR026W,5.0
same,level of expressed mRNA in the presence/in the absence of chemical substance,yeast gene YPR113W,3.7
same,level of expressed mRNA in the presence/in the absence of chemical substance,yeast gene YPR165W,1.6
same,The level of expressed mRNA in the presence of chemical substance/The level of expressed mRNA in the absence of chemical substance,yeast gene YPR167C,1.9
same,level of expressed mRNA in the presence/in the absence of chemical substance,yeast gene YPR183W,3.5
